Experimental data taken from patent US6417235B2, “Method and use of α-amino-β-mercapto-ethane derivatives as dicarbonyl scavengers for treatment of conditions resulting from protein, lipid, and DNA damage” (University of Kentucky Research Foundation, priority 2000, dated 2002).

Tests used:
CF-3 cells = assay: Protection of fibroblasts from alpha-dicarbonyl stress (cell count after 72 hour exposure); format: cell-based, human; details: FIG. 14
Experimental: (§1) A continuous cell line of human epidermal keratinocytes (HaCat cells) and human dermal fibroblasts (CF-3 cells) were routinely cultured in 75 cm^2 flasks and split biweekly in DMEM containing 10% fetal bovine serum and kept in a humidified atmosphere containing 5% CO2 at 37° C. Human keratinocytes were split using 5% trypsin and human fibroblasts employed 1% trypsin. All experiments were carried out on 6 well dishes (Falcon USA), where keratinocytes were seeded at 2×10^4 cells/well and fibroblasts at 4×10^4 cells/well. Cells were left overnight to attach to the plate and the appropriate carbonyl scavenger was then added 15 minutes prior to the addition of the alpha-dicarbonyl stress compounds glyoxal or methylglyoxal. Following 72 hour exposure to the stress compound, cells were counted with a Coulter counter. the protective effects of the alpha-dicarbonyl scavengers were assessed by comparing the growth of untreated cells with cells exposed to alpha-carbonyl stress +/− test compound.

[1] = tested on: glycation of histone H1 by ADP-ribose; assay: Screening of inhibitors of nonoxidative advanced glycation: AGE-fluorescence on 96 well-microtiter plate; format: biochemical, calf; details: (± SEM, n = 2); for AGE-fluorescence (day 5): complete reaction under air
Experimental: All operations were carried out at 4° C. Chromatin was isolated from fresh calf thymus by extraction with 0.14 M NaCl, 0.05 M Na2S2O5, as described earlier in Wondrak supra. After repeated extraction with 5% HCl)4 and centrifugation (1500 g), histone H1 was precipitated from the supernatant by addition of TCA (20% final concentration v/v). The histone H1 precipitate was colleted by centrifugation (12,000 g) and deionized water. After extensive dialysis (MW cut-off: 12,000-14,000) against water for 48 h, the sample was lyophilized and the protein was stored at 4° C. SDS-PAGE (12%) was used to analyze the purity of the preparation.
Earlier studies have reported that D-penicillamine inhibits collagen crosslinking and AGE fluorescence caused by sugars (McPherson, J. D., Shilton, B. H., and Walton, D. J. 1988. Role of Fructose in Glycation and Cross-Linking of Proteins. Biochemistry 27, 1901-1907) and reaction of D-penicillamine with aldehyde groups of proteins (Deshmukh, K., and Nimm, M. E. 1969. A Defect in the Intramolecular and Intermolecular Cross-linking of Collagen caused by Penicillamine. J. Biol. Chem. 244, 1787-1795). A number of different penicillamines and penicillamine derivatives were tested to determine the inhibition of AGE-fluorescence on histone H1 at physiological pH. The reaction conditions for the glycation of histone H1 by ADP-ribose mimic physiological conditions to the extent possible. Reaction mixtures contain 1.5 mg/ml histone Hl, 1.0 mM ADP-ribose, 50 mM potassium phosphate buffer, pH 7.4, 37° C. D,L-penicillamine; L-penicillamine; D-penicllamine; D-penicillaminedisulfide and N,S- isopropylidine-D-penicillamine were tested in concentrations of 1,5 and 10 mM. The detected reaction parameter representing the accumulation of protein damage is AGE-fluorescence ((λex=[…]), which is suppressed by the presence of a compound with inhibitory activity. Generation of AGE-type fluorescence (λex=355 nm; λem=405 nm) was monitored over time at 37° C; which is in the range of the broad excitation/emission maxima of AGE compounds. To allow high throughput sample processing on 96 well microtiter plates, the reaction volumes are 300 μl. Fluorescence on the 96-well microtiter plates was measured using an automated microtiter fluorescence reader. Fluorescence of the 1 ml samples of the glycation reaction mixtures was measured using a Hitachi F-200 fluorescence spectophotometer, and prior to measurement the protein sample is dialyzed extensively against water (MW cutoff=[…]), lyophilized and reconstituted in reaction buffer. For inhibitor screening the plate is read on a Fluoroskan II plate reader (Titertek, ICN) at the excitation/emission wavelengths set forth above at a bandwidth of 35 nm.
The following screening scheme is used (see Table 1): AGE-fluorescence is determined at the beginning and after five days of incubation. Test compounds that are inherently fluorescent (designated false negatives) were identified by the initial fluorescence measurement (See Table 1, NADH for example). Since these are compounds of uncertain activity, they are diverted directly to the second stage of the screen. Aminoguanidine, a known glycation inhibitory agent, was used as a positive control for suppression of the increase on AGE-fluorescence. After five days incubation and plate reading, fluorescence quenchers (designated false positives) are excluded by measuring the quenching activity of the test compound by addition of AGE modified protein having known fluorescence activity to one microtiter plate well containing test compound in the complete reaction mixture. For this, AGE-BSA is used as the AGE-type fluorescence standard. This AGE-BSA test excludes false positives compounds that function by fluorescence quenching. If fluorescence quenching occurs the test compound is excluded from further screening. […] The protein is visualized by silver staining of the gel. […]

histone H1 = assay: Histone H1 crosslinking by 12% SDS-PAGE with silver staining; format: biochemical, calf; details: 5 mM; histone H1, ADP-ribose reaction system
Experimental: The following screening scheme is used (see Table 1): AGE-fluorescence is determined at the beginning and after five days of incubation. Test compounds that are inherently fluorescent (designated false negatives) were identified by the initial fluorescence measurement (See Table 1, NADH for example). Since these are compounds of uncertain activity, they are diverted directly to the second stage of the screen. Aminoguanidine, a known glycation inhibitory agent, was used as a positive control for suppression of the increase on AGE-fluorescence. After five days incubation and plate reading, fluorescence quenchers (designated false positives) are excluded by measuring the quenching activity of the test compound by addition of AGE modified protein having known fluorescence activity to one microtiter plate well containing test compound in the complete reaction mixture. For this, AGE-BSA is used as the AGE-type fluorescence standard. This AGE-BSA test excludes false positives compounds that function by fluorescence quenching. If fluorescence quenching occurs the test compound is excluded from further screening. […] The protein is visualized by silver staining of the gel. […] A compound that passes the first and second stage of the screen is considered a glycation inhibitor and is further evaluated for biological activity as described below. […]

HaCat cells = assay: Protection of keratinocytes from alpha-dicarbonyl stress (cell count after 72 hour exposure); format: cell-based, human; details: FIG. 14
Experimental: as §1

ΦX-174 DNA = assay: AGE-BSA photosensitized cleavage of ΦX-174 DNA under solar simulated light; format: biochemical; details: for effect on AGE-BSA photosensitized DNA cleavage: solar simulated light, AGE-BSA as photosensitizer; for photosensitizing activity (DNA nicking): SSL 0.8-16 J/cm^2
Experimental: Glycated Proteins as Photosensitizers of DNA Damage in Skin Photoaging. D-Penicillamine inhibits genotoxic consequences of AGE-photosensitization. Accumulation of AGEs on dermal elastin and collagen occurs during normal skin aging in humans. The hypothesis was tested that the intra- and extracellular accumulation of the complex yellow-brown AGE-chromophores contributes to skin aging and carcinogenesis induced by chronic exposure to sunlight. As a possible molecular mechanisms for a detrimental synergism of AGE-formation and exposure to sunlight, photosensitized DNA damage by AGEs was assessed in a simple in vitro system. Irradiation of covalently closed circular ΦX-174 DNA with increasing doses of solar simulated light (SSL) in the presence of AGE-BSA was used to detect photosensitized DNA nicking as a measure of DNA photodamage (panel A). […] Addition of several antioxidants modulated the photosensitization effect (panel C).

HaCat keratinocytes = assay: AGE-photosensitization of human skin cells, growth inhibition under solar simulated light
Experimental: Human HaCat keratinocytes growing on 35 mm dishes were exposed to solar simulated light (1.2 kJ/m^2 UVB and 23 kJ/m^2 UVA) in the presence or absence of AGE-BSA as a model of a protein with advanced glycation endproducts. Control populations were treated in exactly the same way as described above, but were not exposed to solar simulated light (SSL).

N=C(N)NN [Aminoguanidine]
protection from alpha-dicarbonyl stress (CF-3 cells): protection
AGE-fluorescence (day 0) ([1]; compound 1 mM): 1.2 (0.1) relative units
AGE-fluorescence (day 5) ([1]; compound 1 mM): 4.3 (0.2) relative units
AGE-fluorescence (day 0) ([1]; compound 5 mM): 1.2 (0.1) relative units
AGE-fluorescence (day 5) ([1]; compound 5 mM): 2.0 (0.0) relative units
AGE-fluorescence (day 0) ([1]; compound 10 mM): 1.3 (0.1) relative units
AGE-fluorescence (day 5) ([1]; compound 10 mM): 1.8 (0.0) relative units
inhibition of histone H1 crosslinking (histone H1): inhibit histone H1 crosslinking
protection from alpha-dicarbonyl stress (HaCat cells): protection

OC[C@@H](O)[C@@H](O)[C@H](O)[C@H](O)CO [Mannitol]
effect on AGE-BSA photosensitized DNA cleavage (ΦX-174 DNA): blocked the photosensitized DNA cleavage

NC(=O)C1=CN([C@@H]2O[C@H](COP(=O)(O)OP(=O)(O)OC[C@H]3O[C@@H](n4cnc5c(N)ncnc54)[C@H](O)[C@@H]3O)[C@@H](O)[C@H]2O)C=CC1 [NADH]
AGE-fluorescence (day 0) ([1]; compound 5 mM): 52 (0.3) relative units
AGE-fluorescence (day 5) ([1]; compound 5 mM): 31 (0.0) relative units

[N-]=[N+]=[N-].[Na+] [NaN3]
effect on AGE-BSA photosensitized DNA cleavage (ΦX-174 DNA): blocked the photosensitized DNA cleavage

AGE-BSA: Glycosylated Bovine Serum Albumin, BSA incubated with D-glucose for 90 days at 37° C.
photosensitizing activity (DNA nicking) (ΦX-174 DNA): the damage was concentration dependent
increase in growth inhibition as compared to SSL alone (HaCat keratinocytes; 10 mg/mL AGE-BSA with SSL): 4 fold
growth inhibition (HaCat keratinocytes; 10 mg/mL AGE-BSA with SSL (1.2 kJ/m^2 UVB and 23 kJ/m^2 UVA)): 80%

L-Cys-Gly
AGE-fluorescence (day 0) ([1]; compound 1 mM): 1.3 (0.3) relative units
AGE-fluorescence (day 5) ([1]; compound 1 mM): 17 (0.0) relative units
AGE-fluorescence (day 0) ([1]; compound 5 mM): 1.2 (0.2) relative units
AGE-fluorescence (day 5) ([1]; compound 5 mM): 26 (0.4) relative units
AGE-fluorescence (day 0) ([1]; compound 10 mM): 1.2 (0.1) relative units
AGE-fluorescence (day 5) ([1]; compound 10 mM): 40 (0.0) relative units

Unmodified BSA: unmodified bovine serum albumin
photosensitizing activity (DNA nicking) (ΦX-174 DNA): no such photosensitizing activity

catalase
effect on AGE-BSA photosensitized DNA cleavage (ΦX-174 DNA): not effective
